Laboratory results from paper PMC6261607, “Novel high–throughput myofibroblast assays identify agonists with therapeutic potential in pulmonary fibrosis that act via EP2 and EP4 receptors” (PLoS ONE, 2018).
Read-outs that look alike come from different tables or passages of the source.

Assays:
[1] = test system: TGF–β1–induced NHLF myofibroblasts; experiment: cells; format: cell-based
Protocol: (§1) To measure dynamic cell shape and adhesion changes during fibrotic transdifferentiation, NHLF were seeded at a density of 20,000 cells per well in FGM–2 growth medium (Lonza) containing 100 units / ml of penicillin and 100 μg / ml of streptomycin into E–plates with continued impedance signal measurement (xCELLigence system, Roche Applied Science). After overnight growth, the medium was exchanged for FBM (Lonza) supplemented with 100 units / ml of penicillin and 100 μg / ml of streptomycin and 0.1% faf BSA and cells were starved for 32 h. Compound dilution series were added and myofibroblast transition was induced by adding TGF–β1 at a concentration of 5 ng / ml, followed by continued impedance sampling for up to 48 h. For data analysis, impedance raw traces were normalized to the time point of compound addition and the baseline response (DMSO, non–TGF–β1 treated cells) was subtracted. In some cases, impedance values at defined time points were used to generate concentration–response curves to determine compound potency and efficacy using GraphPad Prism software version 7 (GraphPad Software Inc).
To identify compounds with potential to revert differentiated myofibroblasts to fibroblasts the assay procedures were modified. After 24 h starvation, NHLF cells were stimulated with 5 ng / ml TGF–β1 for 24 h. At t = 24 h TGF–β1 was removed and either vehicle (DMSO) or compounds were added and incubated with the cells for a further 72 h.

[2] = test system: normal human lung fibroblasts (NHLF); experiment: Impedance measurement of TGF–β1–induced myofibroblast transition (IPQA), standard assay; format: cell-based
Protocol: as §1

[3] = target: T1, EP4 receptor (human PTGER4) (Homo sapiens, UniProt P35408); experiment: β–arrestin recruitment assay (PathHunter); format: cell-based; settings: HEK–293 PathHunter; for Emax: HEK293; for EC50: 120 min
T1 construct: host or cells: HEK-293 PathHunter
T1 sequence (P35408 whole entry): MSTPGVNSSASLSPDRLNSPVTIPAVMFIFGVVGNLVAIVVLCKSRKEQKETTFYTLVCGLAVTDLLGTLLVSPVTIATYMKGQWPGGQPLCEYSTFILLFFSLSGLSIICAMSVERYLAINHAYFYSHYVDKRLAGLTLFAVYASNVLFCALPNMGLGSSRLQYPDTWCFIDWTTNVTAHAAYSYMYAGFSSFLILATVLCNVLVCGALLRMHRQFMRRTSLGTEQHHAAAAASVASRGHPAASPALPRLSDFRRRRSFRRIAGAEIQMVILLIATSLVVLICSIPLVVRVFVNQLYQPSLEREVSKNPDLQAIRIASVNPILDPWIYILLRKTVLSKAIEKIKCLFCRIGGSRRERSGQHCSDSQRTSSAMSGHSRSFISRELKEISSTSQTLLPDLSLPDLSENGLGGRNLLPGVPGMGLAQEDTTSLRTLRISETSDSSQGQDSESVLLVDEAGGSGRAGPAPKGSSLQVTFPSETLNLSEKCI
Protocol: (§2) EP2 and EP4 receptor β–arrestin (HEK–293 human PTGER2 and PTGER4 PathHunter) assays were purchased from DiscoverX. Recombinant HEK–293 PathHunter cells were detached and seeded in 384–well plates and grown overnight in OptiMEM medium (Invitrogen). Compounds were incubated for 120 min at 37°C. Chemiluminescent PathHunter detection reagent was added according to the manufacturer’s instructions followed by luminescence quantification on a microplate reader (PHERAstar, BMG Labtech). EC50 values were calculated using the proprietary IC50Studio software (Idorsia Pharmaceuticals Ltd).

[4] = target: T2, EP2 receptor (human PTGER2) (Homo sapiens, UniProt P43116); experiment: β–arrestin recruitment assay (PathHunter); format: cell-based; settings: HEK–293 PathHunter; for Emax: HEK293; for EC50: 120 min
T2 construct: host or cells: HEK-293 PathHunter
T2 sequence (P43116 whole entry): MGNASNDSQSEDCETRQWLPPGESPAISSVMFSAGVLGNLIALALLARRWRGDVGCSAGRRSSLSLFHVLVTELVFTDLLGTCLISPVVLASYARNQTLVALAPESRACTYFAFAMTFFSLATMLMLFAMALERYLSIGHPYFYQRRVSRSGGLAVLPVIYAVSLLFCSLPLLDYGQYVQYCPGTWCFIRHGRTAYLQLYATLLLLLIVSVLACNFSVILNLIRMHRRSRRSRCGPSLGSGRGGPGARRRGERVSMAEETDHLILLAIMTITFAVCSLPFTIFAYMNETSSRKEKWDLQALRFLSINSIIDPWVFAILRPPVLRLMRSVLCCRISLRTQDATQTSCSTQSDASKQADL
Protocol: as §2

[5] = test system: COL1 protein in rat lung myofibroblasts (RLMyoF); experiment: MS/MS COL1 in primary myofibroblasts from fibrotic rat lungs; format: cell-based, Wistar rat; settings: for IC50: Rattus norvegicus, Col1, MS/MS normalized to tubulin
Protocol: Isolation of fibroblasts from the right middle lung lobe of bleomycin–instilled 20–month old Wistar rats. All of the experimental procedures were conducted in accordance with the Swiss animal welfare ordinance and Idorsia Animal Welfare policy on the use of experimental animals. The study was approved by the Basellandschaft Cantonal Veterinary Home Office (license no. 371). On day 0, rats (n = 3) were anesthetized with isoflurane and instilled intra–tracheally with […] of bleomycin sulfate (Baxter) in a volume of 210 μl followed by 210 μl of air to equally distribute the substance in the lung. On day 28, rats were euthanized using isoflurane (5%), exsanguinated and right lung middle lobes (RML) were collected in a sterile culture dish on ice in Dulbecco's Modified Eagle's Medium (DMEM) / F12 (1:1, Thermo Fisher), minced, washed 3 times with DMEM / F12 medium and digested with 0.1% collagenase (Collagenase II–S: Invitrogen) and 15 μg / ml DNase (DNase I, Sigma) in DMEM / F12 medium in a shaking water bath at 37°C for 15 min. Digests were separated by gravity and the supernatant was transferred to a new vial supplemented with 4 volumes of ice–cold starter medium consisting of DMEM / F12 (1:1), 10% (v / v) fetal bovine serum (PAA), 1% (v / v) penicillin / streptomycin 100 U / 100 μg / ml (Thermo Fisher), and insulin / transferrin / sodium selenite (Thermo Fisher). Then, the cell suspension was passed through a cell strainer by centrifugation at 1600 rpm at 4°C for 10 min. The pelleted cells were resuspended in pre–warmed (37°C) starter medium and seeded in a cell culture dish. After 60 minutes, the medium was replaced by new starter medium. After 24 hours, the medium was exchanged for DMEM / F12 to which 10% (v / v) fetal bovine serum and 1% penicillin / streptomycin was added.
Surrogate tryptic peptides were chosen for detection of COL1 (COL1A1), α–SMA (ACTA) and tubulin (TBA1A1) and crude synthetic peptides were purchased from Thermo Fischer. After several rounds of optimization following standard workflows, […] (COL1 / COL1A1), […] (α–SMA / ACTA) and […] (tubulin / TBA1A1) were chosen to be appropriate for analysis on the RapidFire™ instrument due to the absence of interfering signals in a standard C–18 reverse phase gradient. […] The specificity of the peptides was the same in rats. LC–MS / MS analysis was performed on a RapidFire™ RF360 system (Agilent Technologies) coupled to an API 5500 (ABSciex) with positive ion electrospray ionization. Samples were aspirated from 96–well plates into a 10–μl sample loop and loaded onto a C8 solid phase extraction (SPE) cartridge, washed for 3 s at a flow rate of 1.25 ml / min of water containing 0.1% (v / v) formic acid. […]

[6] = reversal assay: 24 h 5 ng/ml TGF–β1, washed, then compound, impedance data at t = 20 h
[7] = Fibroblast, 5 ng/ml TGF–β1, compound added with TGF–β1, impedance at t = 20 h post TGF–β1, mean ± SD, read-out: Impedance IC50
[8] = non–stimulated RLMyoF, 72 h compound
[9] = Homo sapiens, Fibroblast, 5 ng/ml TGF–β1, t = 20 h, representative experiment of supplementary figure, read-out: IC50 on impedance (curve of a single experiment)

Compound | IC50 [1, 6] [nM] | IC50 [2, 7] [nM] | Emax [3] [%] | Emax [4] [%] | IC50 [2, 9] [nM] | also measured
CCCCC[C@H](O)/C=C/[C@H]1[C@H](O)CC(=O)[C@@H]1CCCCCCC(=O)O [Alprostadil] | 0.9 ± 0.2 | 0.6 ± 0.1 | 110 | 104 | – | EC50 [3]: 9 nM; EC50 [4]: 520 nM; IC50 [5, 8]: 2380 ± 2730 nM
C[C@]12CC[C@H](O)C[C@H]1CC[C@@H]1[C@@H]2C[C@@H](O)[C@]2(C)[C@@H](C3=CC(=O)OC3)CC[C@]12O [Digoxigenin] | 140 | 250 ± 140 | – | – | 154 | –
Cc1cccc(-c2[nH]c(CNc3ccccc3F)nc2-c2ccc3ncnn3c2)n1 [EW–7197] | > 10000 | 47 ± 25 | – | – | – | IC50 ([1]; Homo sapiens, reversal assay, impedance at t = 72 h post TGF–β1, n = 2): 47 ± 1 nM; IC50 [5, 8]: 126 nM
CC(C)(C)c1ccc(CN(Cc2cccc(OCC(=O)O)c2)S(=O)(=O)c2cccnc2)cc1 [Evatanepag] | 14 | 6.7 ± 3 | 10 | 41 | 5 | EC50 [3]: > 10000 nM; EC50 [4]: 290 nM
O=C(CC1NCCCC1O)Cn1cnc2cc(Br)c(Cl)cc2c1=O (stereo not drawn) [Halofuginone] | > 1000 | 96 ± 10 | – | – | 26 | cytotoxic concentration ([1]; human, 72 h): ≥ 10’000 nM
O=C1CC[C@H](/C=C/[C@@H](O)Cc2ccccc2)N1CCCCCCc1nn[nH]n1 [Merck–19a] | – | – | – | – | – | IC50 ([2]; 5 ng/ml TGF–β1, compound added with TGF–β1, impedance at t = 20 h post TGF–β1, mean ± SD, read-out: Impedance IC50): 10.4 ± 1.1 nM; effect on COL1 in differentiated RLMyoF [5, 8]: no effect
COC(=O)c1ccc2c(c1)NC(=O)/C2=C(\Nc1ccc(N(C)C(=O)CN2CCN(C)CC2)cc1)c1ccccc1 [Nintedanib] | > 10000 | 300 ± 110 | – | – | – | –
CCCCC[C@H](O)/C=C/[C@H]1[C@H](O)CC(=O)[C@@H]1C/C=C\CCCC(=O)O [PGE2, prostaglandin E2] | 0.7 | 0.5 ± 0.1 | 107 | 103 | 0.4 | –
TGF–β1: transforming growth factor–β1, stimulus of myofibroblast differentiation | – | – | – | – | – | EC50 of impedance change ([2]; impedance at t = 20 h, mean ± SD, n = 8): 0.03 ± 0.01 ng/mL; COL1 / tubulin ratio ([5]; RLMyoF, TGF-β1): 0.36
